Source: patent US9200005B2, “Inhibitor compounds of phosphodiesterase type 10A” (AbbVie Deutschland GmbH & Co. KG, priority 2013, dated 2015)
Where a name gives a salt, the structure may show the parent alone.

Experiments:
PDE10A = PDE10A (UniProt Q9Y233); assay: Measurement of PDE activity (HTRF cAMP kit, recombinant PDE10A); format: biochemical, human, rat and mouse; settings: substrate 20 nM, 60 minutes at 29° C.
Description: a) Measurement of PDE Activity
The recombinant PDE proteins are used in in vitro enzymatic reaction for measurement of PDE activity. These recombinant proteins, including PDE10A (human, rat and mouse PDE10) and isoforms of PDEs 1, 3, 4, and 5, were purchased from commercial vendor BPS Bioscience. The enzymatic activity of PDEs was determined by cAMP measurement kit from CisBio (IBA) using HTRF technology.
The PDE enzymatic reaction was carried out in assay buffer (20 mM Tris-HCl pH 7.5, 10 mM MgCl2, 0.1% bovine serum albumin) containing enzyme and substrate. […] The substrate cyclic nucleotide (cAMP or cGMP) concentration used in the assay was 20 nM for PDE10, and 100 nM for other PDEs. The inhibitory effect of compound was determined by incubating various concentration of inhibitor in the enzymatic assay. […] Next, the compound at varying concentration was mixed with PDE enzyme. The reaction was initiated by addition of cyclic nucleotide substrate, and incubated for 60 minutes at 29° C. The reaction was stopped by addition of lysis buffer from the assay kit. The cAMP-d2 and anti-cAMP cryptate in the lysis buffer detected the level of cAMP left from the PDE hydrolysis reaction. […] Thus, IC50 value of inhibitor can be obtained by plotting inhibitor concentration against PDE activity at that concentration.

[1] = Determination of the microsomal half-life / microsomal clearance, human liver microsomes; format: in vitro ADME; settings: 0.5 μM test substance, 0.25 mg of microsomal protein/mL, NADPH, 37° C.
Description: (§1) b) Determination of the Microsomal Half-Life:
(§2) The metabolic stability of the compounds of the invention was determined in the following assay.
(§3) The test substances were incubated in a concentration of 0.5 μM as follows:
(§4) 0.5 μM test substance are preincubated together with liver microsomes from different species (from rat, human or other species) (0.25 mg of microsomal protein/mL) in 0.05 M potassium phosphate buffer of pH 7.4 in microtiter plates at 37° C. for 5 min. The reaction is started by adding NADPH (1 mg/mL). After 0, 5, 10, 15, 20 and 30 min, 50 μl aliquots are removed, and the reaction is immediately stopped and cooled with the same volume of acetonitrile. The samples are frozen until analyzed. The remaining concentration of undegraded test substance is determined by MSMS. The half-life (T½) is determined from the gradient of the signal of test substance/unit time plot, it being possible to calculate the half-life of the test substance, assuming first order kinetics, from the decrease in the concentration of the compound with time. The microsomal clearance (mCl) is calculated from mCl=ln 2/T½/(content of microsomal protein in mg/mL)×1000 [mL/min/mg] (modified from references: Di, The Society for Biomoleculur Screening, 2003, 453-462; Obach, DMD, 1999 vol 27. N 11, 1350-1359).

[2] = Determination of the microsomal half-life / microsomal clearance, rat liver microsomes; format: in vitro ADME; settings: 0.5 μM test substance, 0.25 mg of microsomal protein/mL, NADPH, 37° C.
Description: as §1, §2, §3, §4

Compound | IC50 (PDE10A) | Human mCl [1] | Rat mCl [2] | IC50 (PDE10A; (hydrochloride salt)) | Rat mCl ([2]; bis(trifluoroacetate))
Cn1nc(OCc2nccs2)c2scc(-c3ccncc3)c2c1=O [Example 58, 5-methyl-3-(pyridin-4-yl)-7-(1,3-thiazol-2-ylmethoxy)thieno[2,3-d]pyridazin-4(5H)-one] | < 100 nM | ++ (++: <100 μl min^−1 mg^−1) | ++ (++: <100 μl min^−1 mg^−1) |  | 
O=c1c2c(-c3ccncc3)csc2c(-c2ccncc2)nn1CC(F)(F)F [Example 131, 3,7-di(pyridin-4-yl)-5-(2,2,2-trifluoroethyl)thieno[2,3-d]pyridazin-4(5H)-one] | < 100 nM | ++ (++: <100 μl min^−1 mg^−1) | ++ (++: <100 μl min^−1 mg^−1) |  | 
COc1ccc(Oc2nn(C)c(=O)c3c(-c4ccncc4)csc23)cc1OC [Example 91, 7-(3,4-dimethoxyphenoxy)-5-methyl-3-(pyridin-4-yl)thieno[2,3-d]pyridazin-4(5H)-one] | < 100 nM | ++ (++: <100 μl min^−1 mg^−1) | ++ (++: <100 μl min^−1 mg^−1) |  | 
Cn1nc(OCc2nc3ccccc3n2C)c2scc(-c3ccncc3)c2c1=O [Example 70, 5-methyl-7-[(1-methyl-1H-benzimidazol-2-yl)methoxy]-3-(pyridin-4-yl)thieno[2,3-d]pyridazin-4(5H)-one] | < 100 nM | + (+: 100-220 μl min^−1 mg^−1) | + (+: 100-220 μl min^−1 mg^−1) |  | 
Cn1nc(-c2ccncc2)c2scc(-c3cncnc3)c2c1=O [Example 11, 5-methyl-7-(pyridin-4-yl)-3-(pyrimidin-5-yl)thieno[2,3-d]pyridazin-4(5H)-one (hydrochloride salt)] |  | ++ (++: <100 μl min^−1 mg^−1) | ++ (++: <100 μl min^−1 mg^−1) | 100 to 200 nM | 
Cn1nc(-c2ccncc2)c2scc(-c3cccnc3)c2c1=O.O=C(O)C(F)(F)F [Example 14, 5-methyl-3-(pyridin-3-yl)-7-(pyridin-4-yl)thieno[2,3-d]pyridazin-4(5H)-one bis(trifluoroacetate)] | 100 to 200 nM | ++ (++: <100 μl min^−1 mg^−1) |  |  | ++ (++: <100 μl min^−1 mg^−1)
3-[4-oxo-7-(pyridin-4-yl)-5-(2,2,2-trifluoroethyl)-4,5-dihydrothieno[2,3-d]pyridazin-3-yl]benzonitrile [Example 127] | < 100 nM | ++ (++: <100 μl min^−1 mg^−1) | ++ (++: <100 μl min^−1 mg^−1) |  | 
CC(C)Oc1cccc(COc2nn(C)c(=O)c3c(-c4ccncc4)csc23)c1 [Example 73, 5-methyl-7-{[3-(propan-2-yloxy)benzyl]oxy}-3-(pyridin-4-yl)thieno[2,3-d]pyridazin-4(5H)-one] | 200 to 500 nM | ++ (++: <100 μl min^−1 mg^−1) | ++ (++: <100 μl min^−1 mg^−1) |  | 
COCCn1cc(-c2nn(C)c(=O)c3c(-c4ccncc4)csc23)cn1.O=C(O)C(F)(F)F.O=C(O)C(F)(F)F [Example 99, 7-[1-(2-methoxyethyl)-1H-pyrazol-4-yl]-5-methyl-3-(pyridin-4-yl)thieno[2,3-d]pyridazin-4(5H)-one bis(trifluoroacetate)] | < 100 nM | ++ (++: <100 μl min^−1 mg^−1) | ++ (++: <100 μl min^−1 mg^−1) |  | 
Cn1nc(OCc2ccc3c(c2)CNC3)c2scc(-c3ccncc3)c2c1=O [Example 126, 7-(2,3-dihydro-1H-isoindol-5-ylmethoxy)-5-methyl-3-(pyridin-4-yl)thieno[2,3-d]pyridazin-4(5H)-one bis(trifluoroacetate)] | 200 to 500 nM |  |  |  | 
COc1cc(OC)cc(-c2nn(C)c(=O)c3c(-c4ccncc4)csc23)c1 [Example 111, 7-(3,5-dimethoxyphenyl)-5-methyl-3-(pyridin-4-yl)thieno[2,3-d]pyridazin-4(5H)-one trifluoroacetate] | 100 to 200 nM |  |  |  | 
Cn1ccnc1COc1nn(C)c(=O)c2c(-c3ccncc3)csc12 [Example 56, 5-methyl-7-[(1-methyl-1H-imidazol-2-yl)methoxy]-3-(pyridin-4-yl)thieno[2,3-d]pyridazin-4(5H)-one] | 200 to 500 nM |  |  |  | 
COc1ccccc1-c1nn(C)c(=O)c2c(-c3ccncc3)csc12 [Example 113, 7-(2-methoxyphenyl)-5-methyl-3-(pyridin-4-yl)thieno[2,3-d]pyridazin-4(5H)-one trifluoroacetate] | 200 to 500 nM |  |  |  | 
Cn1nc(-c2cccc(O)c2)c2scc(-c3ccncc3)c2c1=O [Example 107, 7-(3-hydroxyphenyl)-5-methyl-3-(pyridin-4-yl)thieno[2,3-d]pyridazin-4(5H)-one trifluoroacetate (salt)] | < 100 nM |  |  |  | 
Cn1nc(-c2cccc(Cl)c2)c2scc(-c3ccncc3)c2c1=O [Example 105, 7-(3-chlorophenyl)-5-methyl-3-(pyridin-4-yl)thieno[2,3-d]pyridazin-4(5H)-one trifluoroacetate] | 200 to 500 nM |  |  |  | 
Cn1nc(-c2cccc(F)c2)c2scc(-c3ccncc3)c2c1=O [Example 116, 7-(3-fluorophenyl)-5-methyl-3-(pyridin-4-yl)thieno[2,3-d]pyridazin-4(5H)-one trifluoroacetate] | 200 to 500 nM |  |  |  | 
CN(C)c1cccc(-c2nn(C)c(=O)c3c(-c4ccncc4)csc23)c1 [Example 119, 7-[3-(dimethylamino)phenyl]-5-methyl-3-(pyridin-4-yl)thieno[2,3-d]pyridazin-4(5H)-one bis(trifluoroacetate)] | < 100 nM |  |  |  | 
Cn1nc(-c2ccc(C(F)(F)F)cc2)c2scc(-c3ccncc3)c2c1=O [Example 117, 5-methyl-3-(pyridin-4-yl)-7-[4-(trifluoromethyl)phenyl]thieno[2,3-d]pyridazin-4(5H)-one trifluoroacetate] | 100 to 200 nM |  |  |  | 
Cn1nc(-c2cnn(CC(F)(F)F)c2)c2scc(-c3ccncc3)c2c1=O [Example 100, 5-methyl-3-(pyridin-4-yl)-7-[1-(2,2,2-trifruoroethyl)-1H-pyrazol-4-yl]thieno[2,3-d]pyridazin-4(5H)-one bis(trifluoroacetate)] | < 100 nM |  |  |  | 
Cn1nc(-c2cccc(OC(F)(F)F)c2)c2scc(-c3ccncc3)c2c1=O [Example 112, 5-methyl-3-(pyridin-4-yl)-7-[3-(trifluoromethoxy)phenyl]thieno[2,3-d]pyridazin-4(5H)-one trifluoroacetate] | 200 to 500 nM |  |  |  | 
Cc1cnc(Cl)c(Oc2nn(C)c(=O)c3c(-c4ccncc4)csc23)c1 [Example 90, 7-[(2-chloro-5-methylpyridin-3-yl)oxy]-5-methyl-3-(pyridin-4-yl)thieno[2,3-d]pyridazin-4(5H)-one trifluoroacetate] | < 100 nM |  |  |  | 
N#CCCn1nc(-c2ccncc2)c2scc(-c3ccncc3)c2c1=O [Example 140, 3-[4-oxo-3,7-di(pyridin-4-yl)thieno[2,3-d]pyridazin-5(4H)-yl]propanenitrile] | 100 to 200 nM |  |  |  | 
Cn1nc(OCc2nc3ccccc3s2)c2scc(-c3ccncc3)c2c1=O [Example 71, 7-(1,3-benzothiazol-2-ylmethoxy)-5-methyl-3-(pyridin-4-yl)thieno[2,3-d]pyridazin-4(5H)-one trifluoroacetate] | < 100 nM |  |  |  | 
Cc1cc(-c2nn(C)c(=O)c3c(-c4ccncc4)csc23)ccn1 [Example 120, 5-methyl-7-(2-methylpyridin-4-yl)-3-(pyridin-4-yl)thieno[2,3-d]pyridazin-4(5H)-one bis(trifluoroacetate)] | < 100 nM |  |  |  | 
